Laboratory results taken from patent publication US9416118B2, “Docosahexaenoyl ethanolamides” (The Brigham and Women's Hospital, Inc., priority 2011, dated 2016).
Entries after “also recorded” stand apart in the source; their conditions may differ. Like-named read-outs stand apart in the source and are kept apart here.

Tests used:
[1] = tested on: human PMN; test: Microfluidic chamber screening of PMN chemotaxis in an IL-8 gradient; assay type: cell-based
Description: The fabrication and surface modification of the microfluidic devices were prepared as in refs. (9,22). Whole blood (5-10 μl) diluted in HBSS (1:10, v/v) was introduced into the chemotaxis chamber via a cell inlet and neutrophils were captured along the chamber via P-selectin tethering. Next, the transversal gradient of IL-8 (0-10 nM) was introduced to the chemotaxis chamber. After fifteen minutes, novel DHEA metabolites (at a uniform concentration) were introduced to the chemotaxis chamber from the second gradient generator network, and 10 nM IL-8 gradient was maintained Single-cell neutrophil chemotaxis was recorded using microscopy (Nikon, Eclipse E600) equipped with a video camera (Diagnostic, RT Slider) and subject to analysis using ImageJ software (9).
In parallel to structure elucidation, chemotactic screening of HPLC isolated DHEA metabolites obtained from mouse brain was carried out utilizing microfluidic chamber (FIG. 1c). After IL-8 (0-10 nM gradient) was introduced to the main channel of the microfluidic device, P-selectin tethered leukocytes rapidly migrated along the IL-8 chemotactic gradient at an average rate of 2.3 μm/min. After 15 min, the mixture of metabolites was infused into the microfluidic main channel while an IL-8 (0-10 nM) gradient was maintained (FIG. 1c, left panel). […] This decrease in chemotaxic velocity was maintained even after the gradient was switched back to IL-8.
HPLC isolated dioxygenated DHEA products were individually screened for direct PMN actions using microfluidic chambers.

[2] = biological target: T1, human CB2 receptor (Homo sapiens, UniProt P34972); test: CB2 beta-arrestin receptor activation (PathHunter chemiluminescence); assay type: cell-based
Description: (§1) FIG. 4. […] Ligand receptor interactions were determined by increases in chemiluminescence generated upon interaction of the EA labeled beta arrestin with the Pro-Link tagged receptor (see Methods). […] See text for more details.
(§2) Receptor activation with the CB2 beta arrestin system was carried out essentially as in (20,21). HEK cells stably overexpressing human CB2 receptor tagged with Pro-Link and EA labeled beta-arrestin (Discoverx, Fremont Calif.) were plated at 20,000 cells/well of a 96 well plate. […] Ligand receptor interaction was determined by measuring chemiluminescence using the Pathhunter EFC detection kit (Discoverx, Fremont, Calif.), generated upon coupling of the EA labeled beta arrestin with the Pro-Link tagged receptor, with a plate reader (Envision, Perkin Elmer, Santa Clara, Calif.).
(§3) To this end, recombinant human CB receptors were overexpressed in a beta-arrestin system as described in Experimental Procedures.

[3] = biological target: T2, CB1 receptor (Homo sapiens, UniProt P21554); details: from reference 31; read-out: Ki, affinity to CB1 receptor; cited from earlier work
[4] = tested on: platelet-leukocyte aggregates; test: PAF-stimulated platelet-leukocyte aggregate formation in whole blood (overall statements); assay type: cell-based; details: human whole blood, 100 nM PAF, 0.01-100 nM dose range
Description: (§4) FIG. 5. […] Human whole blood stimulated with PAF (100 nM) was incubated with 10,17-diHDHEA, 15-HEDPEA or DHEA for 30 min, 37° C. The incubation was stopped via ice-cold RBC lysis buffer. The majority of RBCs were removed and remaining cells were labeled. Platelet-leukocyte aggregate formation or P-selectin mobilization was analyzed using FACS (see Methods). Dose response inhibition of a) platelet-monocyte aggregate formation, b) representative dot plot of platelet-monocyte aggregates, c) platelet-PMN aggregate formation, d) platelet P-selectin mobilization, with indicated products. (diamonds 10,17-diHDHEA; triangles 15-HEDPEA; squares DHEA). Results are mean±SEM of n=5-6 donors. P<0.05 compared to vehicle treatment.
(§5) Whole blood was incubated with either vehicle, HPLC isolated 10,17-diHDHEA or 15-HEDPEA (0.01-100 nM) for 15 min at 37° C. with intermittent mixing. Vehicle or PAF (100 nM, PAF C-16, Cayman Chemical, Ann Arbor, Mich.) was added for another 30 min at 37° C. with intermittent mixing. Incubation was stopped by ice-cold red blood cell lysis buffer (10 min at 4° C.). Cells were collected using centrifugation (210 g, 5 min, 4° C.) then fixed with 3% formalin (15 min, 4° C.). Cells were stained with FITC-anti-human CD41 (1:100, v/v) and PE-anti-human-CD62P (1:100, v/v) for 20 min at 4° C., and were analyzed using a flow cytometry and Cell Quest software as in (23). Cellular composition within whole blood was determined by forward and side scattering as well as cell-specific markers, anti-human-CD41 for platelets, anti-human-CD14 for monocytes and anti-human-CD16 for neutrophils.

[5] = biological target: T2, CB1 receptor; test: CB1 beta-arrestin receptor activation; assay type: cell-based; parameters: expressed in transfected cells; host or cells: HEK cells; details: HEK cells overexpressing CB1, beta-arrestin system
Description: as §1, §3

[6] = tested on: platelet P-selectin; test: Platelet P-selectin surface expression in PAF-stimulated whole blood; assay type: cell-based, human; details: 10 pM to 100 nM
Description: as §4
(§6) Whole blood was incubated with either vehicle, HPLC isolated 10,17-diHDHEA or 15-HEDPEA (0.01-100 nM) for 15 min at 37° C. with intermittent mixing. […] Cells were stained with FITC-anti-human CD41 (1:100, v/v) and PE-anti-human-CD62P (1:100, v/v) for 20 min at 4° C., and were analyzed using a flow cytometry and Cell Quest software as in (23). Cellular composition within whole blood was determined by forward and side scattering as well as cell-specific markers, anti-human-CD41 for platelets, anti-human-CD14 for monocytes and anti-human-CD16 for neutrophils.

[7] = tested on: platelet-monocyte aggregates; test: PAF-stimulated platelet-monocyte aggregate formation in whole blood; assay type: cell-based, human; details: 100 nM PAF; for Decrease of platelet-monocyte aggregate formation: 10 pM compound, human whole blood
Description: as §4, §5

[8] = tested on: platelet-PMN aggregates; test: PAF-stimulated platelet-PMN aggregate formation in whole blood; assay type: cell-based, human; details: 100 nM PAF
Description: as §4, §6

[9] = tested on: mouse ischemia reperfusion second organ lung injury; test: Hind limb ischemia / second organ lung reperfusion injury; assay type: in vivo
Description: Supplemental FIG. 4. 15-HEDPEA is protective in mouse ischemia reperfusion second organ lung injury. Mice were subjected to hind limb ischemia for 1 hr using tourniquets. 15-HEDPEA was intravenously administered 5 min before tourniquet removal. After 2 hr reperfusion, mouse lungs were harvested and the tissue levels of myeloperoxidase (MPO) were determined using a mouse MPO ELISA. Results are expressed as reduction in lung associated decrease in leukocyte myeloperoxidase values (n=3-6).
Murine hind limb vascular occlusion second organ lung reperfusion injury was performed using 6- to 8-week-old FVB male mice and carried out as in (24).

[10] = biological target: T1, human CB2 receptor; test: AM630 inhibition of ligand-stimulated activation of cells over-expressing CB2; assay type: cell-based
Description: as §1, §2, §3

[11] = 10 nM compound, 0-10 nM IL-8 gradient
[12] = HEK cells overexpressing human CB2, beta-arrestin system, 1 h, 37° C., 1 pM to 100 nM, read-out: EC50 for activation of CB2

T1 sequence (P34972 whole entry): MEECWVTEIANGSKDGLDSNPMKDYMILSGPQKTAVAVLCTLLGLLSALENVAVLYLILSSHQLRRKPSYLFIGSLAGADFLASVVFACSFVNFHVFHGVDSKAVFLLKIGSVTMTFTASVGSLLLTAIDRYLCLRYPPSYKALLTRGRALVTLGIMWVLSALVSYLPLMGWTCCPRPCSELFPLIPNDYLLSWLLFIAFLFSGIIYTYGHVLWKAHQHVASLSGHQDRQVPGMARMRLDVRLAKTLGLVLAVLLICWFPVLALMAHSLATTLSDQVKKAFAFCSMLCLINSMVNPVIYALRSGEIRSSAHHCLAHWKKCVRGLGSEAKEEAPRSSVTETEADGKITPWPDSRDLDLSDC
T2 sequence (P21554 whole entry): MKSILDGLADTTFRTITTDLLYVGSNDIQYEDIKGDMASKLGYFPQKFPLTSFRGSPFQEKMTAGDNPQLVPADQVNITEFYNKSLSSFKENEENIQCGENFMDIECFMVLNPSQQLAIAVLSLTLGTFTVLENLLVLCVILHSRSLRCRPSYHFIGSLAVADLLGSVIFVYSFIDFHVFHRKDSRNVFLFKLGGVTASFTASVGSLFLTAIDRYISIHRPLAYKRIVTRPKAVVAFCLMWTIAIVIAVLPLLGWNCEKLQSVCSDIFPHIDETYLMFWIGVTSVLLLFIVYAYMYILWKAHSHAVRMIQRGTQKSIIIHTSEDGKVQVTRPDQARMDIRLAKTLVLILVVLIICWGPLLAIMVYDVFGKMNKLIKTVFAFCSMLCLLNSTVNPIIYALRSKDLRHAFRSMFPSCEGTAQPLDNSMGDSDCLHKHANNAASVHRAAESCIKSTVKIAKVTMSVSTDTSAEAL

CC/C=C\C[C@H](O)/C=C/C=C\C/C=C\C=C\[C@H](O)C/C=C\CCC(=O)NCCO [7,17-diHDHEA, 7,17-dihydroxydocosa-4Z,8E,10Z,13Z,15,19Z-hexaenoylethanolamide]
Effect on PMN chemotaxis (in words) [1, 11]: did not significantly regulate chemotaxis

CCCCC[C@H](O)/C=C/C=C\C/C=C\C/C=C\CCCC(=O)NCCO [15(S)-HAEA, 15(S)-HETE ethanolamide, reference compound]
Stimulation of CB2 receptors (in words) ([2]; beta-arrestin system, tested dose range 1 pM to 100 nM): did not stimulate CB2 receptors

CCC=CCC=CCC=CCC=CCC=CCC=CCCC(=O)NCCO [DHEA, docosahexaenoylethanolamide, reference compound]
Ki [3]: 324 nM
Effect on platelet-leukocyte aggregate formation (in words) [4]: did not significantly inhibit; also recorded: not active
EC50 [2]: 9.8 nM

CC/C=C\C[C@H](O)/C=C/C=C\C/C=C\C/C=C\C=C\[C@H](O)CCC(=O)NCCO [4,17-diHDHEA, 4,17-dihydroxydocosa-5,7Z,10Z,13Z,15,19Z-hexaenoylethanolamide]
Effect on PMN chemotaxis (in words) [1, 11]: did not significantly regulate chemotaxis

CC/C=C\C[C@H](O)/C=C/C=C\C=C\[C@H](O)C/C=C\C/C=C\CCC(=O)NCCO (single isomer, unassigned) [10,17-diHDHEA, 10,17-dihydroxydocosa-4Z,7Z,11,13Z,15,19Z-hexaenoylethanolamide]
Activation of CB1 receptors (in words) [5]: activated CB1 receptors but required much higher concentrations
Effect on platelet-leukocyte aggregate formation (in words) [4]: prevented formation of platelet-leukocyte aggregates
Effect on platelet-leukocyte aggregate formation (in words) ([4]; listed as 10,17S-diHDHEA): block PAF-stimulated platelet-leukocyte aggregate formation
Effect on P-selectin surface expression of platelets (in words) [6]: blocked P-selectin surface expression
Effect on P-selectin surface expression of platelets (in words) ([6]; listed as 10,17-diHDEA): inhibited
Decrease of platelet-monocyte aggregate formation [7]: ~30%
Maximum reduction of platelet-monocyte aggregate formation ([7]; 100 pM compound, bell-shaped dose response): ~40%
Effect on PMN chemotaxis (in words) [1, 11]: did not significantly regulate chemotaxis
Effect on PMN chemotaxis (in words) ([1]; 10 μM compound, IL-8 gradient): rapidly stopped PMN chemotaxis
Decrease of platelet-PMN aggregates ([8]; human whole blood): 25%-35%
Inhibition of PMN-platelet aggregate formation (in words) ([8]; concentrations as low as 10 pM): inhibited
EC50 [2, 12]: 0.39 nM

CC/C=C\CC1OC1C(O)/C=C\C/C=C\C/C=C\C/C=C\CCC(=O)NCCO (centres unmarked) [15-HEDPEA, 15-hydroxy-16(17)-epoxydocosa-4Z,7Z,10Z,13Z,19Z-pentaenoylethanolamide]
Activation of CB1 receptors (in words) [5]: activated CB1 receptors but required much higher concentrations
Effect on platelet-leukocyte aggregate formation (in words) [4]: block PAF-stimulated platelet-leukocyte aggregate formation; also recorded: prevented formation of platelet-leukocyte aggregates
Decrease of platelet-monocyte aggregate formation [7]: ~30%
Effect on PMN chemotaxis (in words) [1, 11]: effectively stopped PMN chemotaxis; also recorded: stopped further PMN migration
Time after which further PMN migration stopped ([1]; 10 nM compound, IL-8 gradient): ~4 min
Reduction of lung PMN infiltration (MPO) compared to vehicle ([9]; 1 μg/mouse intravenously, 1 h ischemia, 2 h reperfusion): ~50%
Organ protection (in words) ([9]; mouse reperfusion second organ injury, 1 μg/mouse): organ protective
EC50 [2, 12]: 0.1 nM

COc1ccc(C(=O)c2c(C)n(CCN3CCOCC3)c3cc(I)ccc23)cc1 [AM630]
AM630 inhibition of CB2 activation stimulated with 15-HEDPEA ([10]; 15-HEDPEA 10 nM): inhibited activation
AM630 inhibition of CB2 activation stimulated with AEA ([10]; AEA 10 nM, positive control): inhibited activation
AM630 inhibition of CB2 interaction with 10,17-diHDHEA ([10]; at higher concentration, n=3, data not shown): inhibited GPCR CB2 interaction
